A short description of series [1]: Example 3 Part 2 (Regimen B) dabigatran etexilate + belumosudil plasma PK. The format is in vivo, human. How it is done:
The ratio was defined as test/reference. In addition, the intraparticipant variability were also presented. […] No formal interim analyses were performed for this study.

The nature of series [2]: clinical. The conditions noted are these: human, in vivo. How it is done: (§1) On Day 10, the victim and perpetrator IMPs were administered simultaneously.
(§2) On the evening before each dose, participants were provided with a light snack and were required to fast from all food and drink (except water) for a minimum of 10 hours until the following morning. All study interventions were administered in the fed state, following completion of a standard breakfast (with dosing planned to occur 30 minutes after the start of the breakfast).
(§3) The PK parameters underwent a natural logarithmic transformation and were analyzed using a mixed effect modelling technique. Adjusted geometric mean ratios and 90% confidence intervals (CIs) of the ratios were obtained for each comparison. The ratio was defined as test/reference. In addition, the intraparticipant variability were also presented. […] No formal interim analyses were performed for this study.

A further series addresses ROCK2 (Homo sapiens, UniProt O75116). Kind of series: ROCK2 inhibition. The format is biochemical.
Series [3] is described as follows: clinical. How it is done: as §1, §2, §3
For series [4] the following is noted: cited from earlier work.
The nature of series [5]: metabolite exposure in clinical trials of the belumosudil development program. In kind it is in vivo, human.
Where [6] appears, read: Raltegravir + belumosudil (Day 7), belumosudil 200 mg QD.
The mark [7] stands for this setting: Raltegravir alone (Day 1), 400 mg single dose.
[8] abbreviates: Regimen A, raltegravir 400 mg single dose + belumosudil 200 mg QD (Day 7).
Setting [9] is: Regimen A, raltegravir 400 mg single dose alone (Day 1).
[10] abbreviates: raltegravir + belumosudil vs raltegravir alone.
The mark [11] stands for this setting: Dabigatran etexilate + belumosudil (Day 9), belumosudil 200 mg QD.
Setting [12] is: Dabigatran etexilate alone (Day 1), 75 mg single dose.
Setting [13] is: Regimen B, dabigatran etexilate 75 mg single dose + belumosudil 200 mg QD (Day 9).
The mark [14] stands for this setting: dabigatran etexilate + belumosudil vs alone.
The mark [15] stands for this setting: dosed with belumosudil compared to dosing alone.

Structures can show the parent of a compound that is named as a salt. Marks after values point to notes of the source that are not given here.

Data on 7 compounds can be found in US20260232763A1 (Kadmon Corporation, LLC, priority 2023, published 2026).

ROCK2, sequence (O75116 whole entry): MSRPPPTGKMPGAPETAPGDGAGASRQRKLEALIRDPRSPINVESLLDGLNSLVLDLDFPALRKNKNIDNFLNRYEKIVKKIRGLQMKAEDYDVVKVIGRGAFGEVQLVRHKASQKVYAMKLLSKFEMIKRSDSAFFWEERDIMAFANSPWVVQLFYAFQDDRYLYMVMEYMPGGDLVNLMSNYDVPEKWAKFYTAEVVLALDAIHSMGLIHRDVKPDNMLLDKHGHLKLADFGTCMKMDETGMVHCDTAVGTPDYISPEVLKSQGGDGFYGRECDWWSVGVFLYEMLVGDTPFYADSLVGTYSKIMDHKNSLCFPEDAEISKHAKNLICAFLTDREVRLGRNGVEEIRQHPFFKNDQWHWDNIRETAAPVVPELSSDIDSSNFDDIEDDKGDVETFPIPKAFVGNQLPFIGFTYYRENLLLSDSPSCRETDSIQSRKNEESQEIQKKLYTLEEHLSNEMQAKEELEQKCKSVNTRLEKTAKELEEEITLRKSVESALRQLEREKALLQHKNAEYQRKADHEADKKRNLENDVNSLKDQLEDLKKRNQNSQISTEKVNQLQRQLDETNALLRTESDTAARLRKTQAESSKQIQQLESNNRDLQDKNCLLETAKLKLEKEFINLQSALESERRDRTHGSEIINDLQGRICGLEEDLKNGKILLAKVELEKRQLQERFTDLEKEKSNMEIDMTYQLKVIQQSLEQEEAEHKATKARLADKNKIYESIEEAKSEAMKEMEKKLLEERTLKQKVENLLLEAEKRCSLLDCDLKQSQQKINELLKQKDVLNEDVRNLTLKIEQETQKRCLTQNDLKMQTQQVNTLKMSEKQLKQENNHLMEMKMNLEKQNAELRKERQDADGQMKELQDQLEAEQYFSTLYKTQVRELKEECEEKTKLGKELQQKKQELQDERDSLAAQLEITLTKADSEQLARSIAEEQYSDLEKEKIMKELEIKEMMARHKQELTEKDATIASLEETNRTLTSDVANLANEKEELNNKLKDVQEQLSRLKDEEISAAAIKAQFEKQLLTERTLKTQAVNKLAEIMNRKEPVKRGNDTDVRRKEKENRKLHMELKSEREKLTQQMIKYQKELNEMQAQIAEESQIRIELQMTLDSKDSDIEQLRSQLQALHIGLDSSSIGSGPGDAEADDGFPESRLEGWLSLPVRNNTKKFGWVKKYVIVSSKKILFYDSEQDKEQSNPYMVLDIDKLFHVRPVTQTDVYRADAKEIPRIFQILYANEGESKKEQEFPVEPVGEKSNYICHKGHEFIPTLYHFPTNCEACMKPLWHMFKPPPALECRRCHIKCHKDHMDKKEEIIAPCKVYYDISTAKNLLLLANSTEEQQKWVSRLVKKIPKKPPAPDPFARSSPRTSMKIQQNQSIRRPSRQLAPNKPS

`O=C(O)COc1cccc(-c2nc(Nc3ccc4[nH]ncc4c3)c3ccccc3n2)c1` [KD025m2]: in series [1] (human, in vivo), the “increase of exposures (Cmax and AUC) following multiple dosing” value (from here on “increase of exposures”) is reported as 1.27-1.42 fold; the “median Tmax” value lay in the range of 1.5 to 2 h. In addition, in series [1] (human, in vivo, 200 mg), the “AUC(0-last), geometric mean” value was determined as 692 ng·h/mL; the “AUC(0-tau), geometric mean” value amounted to 746 ng·h/mL; the “Cmax, geometric mean” value amounted to 184 ng/mL; the “Tmax, median” value is recorded as 2.000 h. Besides, in “clinical [2]”, the “increase of exposures” value is 1.21-1.57 fold; the “median Tmax” value lay in the range of 1.5 to 2 h. In addition, in the series “clinical [2]” (200 mg), the “AUC(0-last), geometric mean” value amounted to 557 ng·h/mL; the “AUC(0-tau), geometric mean” value is 598 ng·h/mL; the “Cmax, geometric mean” value worked out at 215 ng/mL; the “Tmax, median” value amounted to 2.000 h. Besides, the “ROCK2 activity of metabolite” value on ROCK2 was “ROCK2 inactive”. Further, in “clinical [3]” (human, in vivo), the “increase of exposures” value is recorded as 1.30-1.49 fold; the “median Tmax” value lay within 1.5 to 3 h. Moreover, in “clinical [3]” (human, in vivo, 200 mg), the “AUC(0-last), geometric mean” value came to 879 ng·h/mL; the “AUC(0-tau), geometric mean” value came out at 961 ng·h/mL; the “Cmax, geometric mean” value was 278 ng/mL; the “Tmax, median” value was found to be 2.00 h.
`Cc1nnc(C(=O)NC(C)(C)c2nc(C(=O)NCc3ccc(F)cc3)c(O[C@@H]3O[C@H](C(=O)O)[C@@H](O)[C@H](O)[C@H]3O)c(=O)n2C)o1` [raltegravir glucuronide]: the “peak and overall exposure levels when raltegravir was dosed with belumosudil compared to dosing alone” value in the series “clinical [3]” (Part 1) is reported as “notable decrease”. Besides, the “MPR Cmax (metabolite to parent ratio)” value in “clinical [3]” (Raltegravir + belumosudil (Day 7)) turned out to be 0.299. Also, in the series “clinical [3]” (setting [6]), the “AUC(0-24), geometric mean” value turned out to be 1090 ng·h/mL; the “AUC(0-inf), geometric mean” value was determined as 1170 ng·h/mL; the “AUC(0-last), geometric mean” value came out at 859 ng·h/mL; the “Cmax, geometric mean” value is listed as 207 ng/mL. Also, in “clinical [3]” (setting [6]), the “T1/2, geometric mean” value is on record as “approximately 3.9 h” and the “Tmax, median” value was found to be 4.000 h. Also, in the series “clinical [3]” (Raltegravir + belumosudil (Day 7), belumosudil 200 mg QD, listed as Raltegravir glucuronide), the “T1/2, geometric mean” value is listed as 3.919 h. In addition, the “MPR Cmax (metabolite to parent ratio)” value in the series “clinical [3]” (Raltegravir alone (Day 1)) is recorded as 0.506. In “clinical [3]” (setting [7]), the “AUC(0-24), geometric mean” value is 1710 ng·h/mL; the “AUC(0-inf), geometric mean” value stood at 1290 ng·h/mL; the “AUC(0-last), geometric mean” value was 1420 ng·h/mL; the “Cmax, geometric mean” value was determined as 359 ng/mL. Further, in “clinical [3]” (setting [7]), the “T1/2, geometric mean” value was ~1.5 h and the “Tmax, median” value is 4.000 h. Moreover, the “T1/2, geometric mean” value in the series “clinical [3]” (Raltegravir alone (Day 1), 400 mg single dose, listed as Raltegravir glucuronide) is listed as 1.541 h. Also, in the series “clinical [3]” (setting [8]), the “AUC(0-last), adj geo mean” value turned out to be 859 ng·h/mL and the “Cmax, adj geo mean” value was 207 ng/mL. Moreover, in “clinical [3]” (setting [9]), the “AUC(0-last), adj geo mean” value was 1420 ng·h/mL and the “Cmax, adj geo mean” value is recorded as 359 ng/mL. Moreover, in “clinical [3]” (setting [10]), the “AUC(0-last), ratio of adj geo means (test/reference)” value is listed as 60.38% and the “Cmax, ratio of adj geo means (test/reference)” value is 57.58%.
Regarding `CC(C)c1nc(N(C)S(C)(=O)=O)nc(-c2ccc(F)cc2)c1/C=C/[C@@H](O)C[C@@H](O)CC(=O)O` [rosuvastatin, reference compound], in the series “clinical [2]” (male), the “increase of overall exposure level” value is 4.62 fold and the “increase of peak exposure level” value worked out at 3.59 fold. Besides, in the series “clinical [2]” (male, 10 mg), the area under the curve AUC(0-inf) was 25.4 ng·h/mL; the “AUC(0-last), geometric mean” value was 13.6 ng·h/mL; the AUC(0-t) is 13.6 ng·h/mL; the “Cmax, adj geo mean” value is 2.96 ng/mL. In “clinical [2]” (male, 10 mg), the “Cmax, geometric mean” value is given as 2.96 ng/mL.
Take `CC(C)NC(=O)COc1cccc(-c2nc(Nc3ccc4[nH]ncc4c3)c3ccccc3n2)c1` [Belumosudil mesylate, 2-{3-[4-(1H-indazol-5-ylamino)-2-quinazolinyl]phenoxy}-N-(propan-2-yl) acetamide methanesulfonate (1:1)]: the “solubility in DMF” value in series [4] (DMF) is given as “slightly soluble”. For the same compound, the “solubility in DMSO” value in series [4] (DMSO) was “soluble”. Besides, the solubility in methanol entry in series [4] (methanol) is “slightly soluble”. Further, the solubility in water result in series [4] (water) is on record as “practically insoluble”.
Turning to `NC(=O)COc1cccc(-c2nc(Nc3ccc4[nH]ncc4c3)c3ccccc3n2)c1` [KD025m1], in series [1] (human, in vivo), the “T1/2, individual participant value(s)” value is reported as 1.878^b h and the “median Tmax” value lay in the range of 1.5 to 2 h. For the same compound, in series [1] (human, in vivo, 200 mg), the “AUC(0-last), geometric mean” value worked out at 35.3 ng·h/mL; the “Cmax, geometric mean” value came out at 19.5 ng/mL; the “Tmax, median” value came out at 1.750 h. The “exposure of metabolite relative to the parent” value in series [5] is reported as < 5%. Further, the “median Tmax” value in “clinical [2]” lay within 1.5 to 2 h. Also, in the series “clinical [2]” (200 mg), the “AUC(0-last), geometric mean” value was found to be 32.0 ng·h/mL; the “Cmax, geometric mean” value is listed as 17.1 ng/mL; the “Tmax, median” value is reported as 1.500 h. On ROCK2, the “ROCK2 activity of metabolite” value is listed as “ROCK2 active”. In “clinical [3]” (human, in vivo), the “geometric mean T1/2” value lay within 1.6 to 2 h and the “median Tmax” value was in the range of 1.5 to 3 h. In the series “clinical [3]” (human, in vivo, 200 mg), the “AUC(0-last), geometric mean” value turned out to be 47.6 ng·h/mL; the “AUC(0-tau), geometric mean” value came out at 96.6 ng·h/mL; the “Cmax, geometric mean” value was 21.4 ng/mL; the “T1/2, geometric mean” value is 1.621 h. Moreover, in “clinical [3]” (human, in vivo, 200 mg), the “Tmax, median” value worked out at 2.00 h.
In the case of `[H]/N=C(/N)c1ccc(NCc2nc3cc(C(=O)N(CCC(=O)O)c4ccccn4)ccc3n2C)cc1` [unconjugated dabigatran, dabigatran, reference compound], in series [1] (setting [11]), the “AUC(0-last), geometric mean” value worked out at 682 ng·h/mL; the “Cmax, geometric mean” value is on record as 99.5 ng/mL; the “T1/2, geometric mean” value is 8.293 h; the “Tmax, median” value stood at 2.000 h. Besides, in series [1] (setting [12]), the “AUC(0-last), geometric mean” value amounted to 317 ng·h/mL; the “Cmax, geometric mean” value is listed as 42.1 ng/mL; the “T1/2, geometric mean” value amounted to 8.128 h; the “Tmax, median” value worked out at 3.000 h. Besides, in series [1] (setting [13]), the “AUC(0-last), adj geo mean” value came out at 682 ng·h/mL and the “Cmax, adj geo mean” value is 99.5 ng/mL. Further, the “Cmax, adj geo mean” value in series [1] (Regimen B, dabigatran etexilate 75 mg single dose alone (Day 1)) stood at 42.1 ng/mL. Also, in series [1] (coadministration of belumosudil), the increase of exposure stood at 2 fold. Moreover, in series [1] (setting [14]), the “AUC(0-inf), ratio of adj geo means (test/reference)” value came out at 206.47%; the “AUC(0-last), ratio of adj geo means (test/reference)” value worked out at 215.41%; the “Cmax, ratio of adj geo means (test/reference)” value came out at 236.06%. In series [1] (setting [15]), the “increase of overall exposure level” value came out at 2.06 fold and the “increase of peak exposure level” value was 2.36 fold. In addition, the AUC(0-inf) in series [1] (male, human, plasma, oral, 75 mg, Dabigatran etexilate alone (Day 1), 75 mg single dose, read-out: AUC(0-inf), geometric mean) came out at 371 ng·h/mL. Also, the area under the curve AUC(0-inf) in series [1] (male, human, plasma, oral, 75 mg, Regimen B, dabigatran etexilate 75 mg single dose alone (Day 1), read-out: AUC(0-inf), adj geo mean) was 398 ng·h/mL. The total exposure AUC(0-inf) in series [1] (male, human, plasma, oral, Dabigatran etexilate + belumosudil (Day 9), belumosudil 200 mg QD, read-out: AUC(0-inf), geometric mean) is 801 ng·h/mL. For the same compound, the AUC(0-inf) in series [1] (male, human, plasma, oral, Regimen B, dabigatran etexilate 75 mg single dose + belumosudil 200 mg QD (Day 9), read-out: AUC(0-inf), adj geo mean) worked out at 822 ng·h/mL. In series [1] (male, human, plasma, oral, Regimen B, dabigatran etexilate 75 mg single dose alone (Day 1), read-out: AUC(0-last), adj geo mean), the AUC(0-t) was 317 ng·h/mL.
On to `Cc1nnc(C(=O)NC(C)(C)c2nc(C(=O)NCc3ccc(F)cc3)c(O)c(=O)n2C)o1` [raltegravir, reference compound], for which the “Tmax, median” value in “clinical [3]” (setting [6]) was found to be 3.000 h. In “clinical [3]” (setting [7]), the “Tmax, median” value was determined as 3.000 h. Moreover, in “clinical [3]” (male, human, in vivo, 400 mg), the AUC(0-inf) came to 1510 ng·h/mL; the “Cmax, adj geo mean” value amounted to 512 ng/mL; the “Cmax, geometric mean” value was found to be 520 ng/mL; the “T1/2, geometric mean” value came out at 1.434 h. In the series “clinical [3]” (male, human, in vivo, 400 mg), the half-life is ~1.4 h. This compound also displayed an AUC(0-t) in the series “clinical [3]” (male, human, in vivo, 400 mg, AUC(0-24), geometric mean) of 1970 ng·h/mL. In “clinical [3]” (male, human, in vivo, 400 mg, AUC(0-last), adj geo mean), this compound registered an AUC(0-t) of 1570 ng·h/mL. Moreover, the AUC(0-t) in the series “clinical [3]” (male, human, in vivo, 400 mg, AUC(0-last), geometric mean) is 1640 ng·h/mL.

As a reminder, the AUC(0-inf) is total exposure, with the tail of the curve extrapolated. As a reminder, the half-life is the time in which the quantity being followed falls by half.
